# ChEMBL document CHEMBL1201862, “PubChem BioAssay data set” (2004)
# The source made the active and inactive calls.
# Legend:
# [1] = tested on: Streptococcus sp. 'group A'; test: growth inhibition of control SK(-) GAS strain, dose response, counter-screen for streptokinase expression inhibitor project, luminescence, kanamycin, BacTiterGlo, confirmation (AID 1900); type: functional, organism-based
# CAAX prenyl protease 1 = CAAX prenyl protease 1 (Saccharomyces cerevisiae S288c, UniProt P47154); test: Ste24 protease inhibitors, dose response, biochemical, S. cerevisiae, plate reader, cherry-pick (AID 488815)
# Streptococcus = test: Group A Streptococcus viability loss, dose response, counter-screen for streptokinase expression inhibitor project, luminescence, BacTiterGlo (AID 1915); type: functional, organism-based;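 further: potency for reduction of bacterial viability or growth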
# Streptokinase A = target: T1, Streptokinase A (Streptococcus pyogenes serotype M1, UniProt P10520); test: S. pyogenes streptokinase expression inhibitors, potency, dose response, plasminogen activation absorbance, OD405 (AID 1914); type: functional, Streptococcus pyogenes M1 GAS;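 further: secreted streptokinase activity via plasminogen activation per viability signal from cell pellet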
# T1 sequence (P10520 whole entry): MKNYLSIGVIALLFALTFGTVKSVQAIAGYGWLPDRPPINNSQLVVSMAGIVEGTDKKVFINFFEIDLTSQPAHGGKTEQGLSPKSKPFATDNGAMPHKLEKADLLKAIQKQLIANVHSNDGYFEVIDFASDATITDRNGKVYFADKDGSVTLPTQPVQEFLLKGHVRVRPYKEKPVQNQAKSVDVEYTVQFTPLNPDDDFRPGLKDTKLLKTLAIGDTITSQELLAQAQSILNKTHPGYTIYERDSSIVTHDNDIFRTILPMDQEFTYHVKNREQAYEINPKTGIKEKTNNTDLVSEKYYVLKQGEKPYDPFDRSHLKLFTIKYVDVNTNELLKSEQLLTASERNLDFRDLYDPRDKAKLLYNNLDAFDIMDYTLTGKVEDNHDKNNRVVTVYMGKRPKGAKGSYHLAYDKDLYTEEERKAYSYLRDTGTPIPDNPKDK
# Trypsin = Trypsin (Sus scrofa, UniProt P00761); test: porcine trypsin inhibitors, dose response, selectivity assay for Rce1 protease inhibitor project, biochemical, quenched peptide fluorescence, cherry-pick (AID 488789)
# [2] = Luminescence Cell-Based Dose Retest to Confirm Inhibitors of Cancer Stem Cells. [Related pubchem assays (depositor defined):AID2717, AID2721]; type: functional; details: Homo sapiens
# CAAX prenyl protease 2 [3] = target: CAAX prenyl protease 2 (Homo sapiens, UniProt Q9Y256); test: human Rce1 protease inhibitors, dose response, biochemical, yeast membranes, quenched-peptide fluorescence, cherry-pick (AID 588849)
# CAAX prenyl protease 2 [4] = target: T2, CAAX prenyl protease 2 (Saccharomyces cerevisiae S288c, UniProt Q03530); type: biochemical
# T2 sequence (Q03530 whole entry): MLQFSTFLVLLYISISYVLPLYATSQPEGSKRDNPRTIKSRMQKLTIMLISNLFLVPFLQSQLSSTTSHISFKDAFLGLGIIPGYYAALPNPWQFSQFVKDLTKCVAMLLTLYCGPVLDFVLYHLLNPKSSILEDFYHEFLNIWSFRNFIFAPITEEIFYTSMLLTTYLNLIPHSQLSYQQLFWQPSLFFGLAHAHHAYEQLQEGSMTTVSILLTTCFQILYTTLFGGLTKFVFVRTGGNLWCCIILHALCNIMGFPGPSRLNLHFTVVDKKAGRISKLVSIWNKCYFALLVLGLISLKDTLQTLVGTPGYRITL
# [5] = target: Melanin-concentrating hormone receptor 1 (Homo sapiens, UniProt Q99705); test: Late-stage fluorescence-based counterscreen for antagonists of the G-protein coupled receptor 7 (GPR7): cell-based dose response assay to identify antagonists of the melanin-concentrating hormone receptor 1 (MCHR1) Set 5.; type: functional
# [6] = target: Cyclin-dependent kinase 19 (Homo sapiens, UniProt Q9BWU1); test: Navigating the Kinome. Panel member name: CDC2L6; type: functional
# [7] = target: ALK tyrosine kinase receptor (Homo sapiens, UniProt Q9UM73); type: functional;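 further: ALK tested as one member of a kinase panel screen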
# [8] = target: Sentrin-specific protease 7 (Homo sapiens, UniProt Q9BQF6); type: functional;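 further: Luminescence-based dose-response confirmation of ultra-high-throughput screening hits, measuring inhibition of SENP7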
# [9] = target: T3, Sentrin-specific protease 8 (Homo sapiens, UniProt Q96LD8); type: functional;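 further: luminescence read-out of SENP8 inhibition, dose-response confirmation following an ultra-high-throughput screen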
# T3 sequence (Q96LD8 whole entry): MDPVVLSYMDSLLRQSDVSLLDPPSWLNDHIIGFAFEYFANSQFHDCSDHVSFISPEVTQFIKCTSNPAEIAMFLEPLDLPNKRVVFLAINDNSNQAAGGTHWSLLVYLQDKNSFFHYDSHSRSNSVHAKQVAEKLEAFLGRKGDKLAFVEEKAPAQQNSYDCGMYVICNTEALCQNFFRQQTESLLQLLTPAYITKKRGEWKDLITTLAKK
# [10] = target: T4, Mannose-6-phosphate isomerase (Homo sapiens, UniProt P34949); test: human PMI inhibitors, high substrate, primary screen, biochemical, fluorescence intensity, high mannose 6-phosphate (AID 1220)
# T4 sequence (P34949 whole entry): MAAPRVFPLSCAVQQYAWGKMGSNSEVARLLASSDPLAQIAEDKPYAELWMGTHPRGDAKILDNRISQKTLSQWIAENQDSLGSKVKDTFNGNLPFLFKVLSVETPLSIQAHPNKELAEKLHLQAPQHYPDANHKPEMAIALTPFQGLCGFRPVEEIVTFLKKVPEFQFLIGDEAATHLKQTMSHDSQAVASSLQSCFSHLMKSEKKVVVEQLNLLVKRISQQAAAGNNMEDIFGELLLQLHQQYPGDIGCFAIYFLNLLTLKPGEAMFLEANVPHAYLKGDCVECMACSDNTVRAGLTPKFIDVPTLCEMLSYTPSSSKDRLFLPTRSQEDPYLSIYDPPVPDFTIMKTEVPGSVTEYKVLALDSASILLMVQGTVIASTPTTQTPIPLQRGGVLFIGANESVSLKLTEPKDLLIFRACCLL
# cells [11] = test: cells
# Caspase-3 = Caspase-3 (Homo sapiens, UniProt P42574); type: functional;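 further: Dose-response selectivity test against caspase-3 for candidate inhibitors of sentrin-specific proteases (SENPs)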
# [12] = target: T5, Oxysterols receptor LXR-beta (Homo sapiens, UniProt P55055); type: functional, cell-based;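 further: Cell-based luminescence dose-response assay of agonist activity at LXR, run as a confirmatory counterscreen to a daf-12 agonist screen; agonist potency from rising luciferase signal of a Gal4-LXR reporter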
# T5 sequence (P55055 whole entry): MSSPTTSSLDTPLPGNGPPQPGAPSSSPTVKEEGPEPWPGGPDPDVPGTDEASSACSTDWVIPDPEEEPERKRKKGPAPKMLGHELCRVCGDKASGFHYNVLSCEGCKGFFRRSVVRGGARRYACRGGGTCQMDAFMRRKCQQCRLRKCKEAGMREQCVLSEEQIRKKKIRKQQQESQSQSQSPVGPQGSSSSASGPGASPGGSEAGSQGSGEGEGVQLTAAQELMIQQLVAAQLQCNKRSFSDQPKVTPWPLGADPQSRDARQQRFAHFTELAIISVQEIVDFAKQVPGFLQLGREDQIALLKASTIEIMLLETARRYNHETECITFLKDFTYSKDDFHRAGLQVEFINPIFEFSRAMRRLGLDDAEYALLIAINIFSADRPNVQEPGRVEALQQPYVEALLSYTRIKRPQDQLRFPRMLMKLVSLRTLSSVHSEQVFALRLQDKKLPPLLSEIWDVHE
# [13] = target: T4, Mannose-6-phosphate isomerase; test: inhibitors of human PMI, primary screen, biochemical, fluorescence intensity, coupled assay (AID 1209)
# [14] = target: T5, Oxysterols receptor LXR-beta; test: LXR agonists, Gal4 luciferase reporter, dose response, counter-screen for ssDAF-12 agonist project, cell-based, luminescence, HEK293, S. stercoralis campaign (AID 720737); type: functional; details: read-out: IC50 (the source's name)
# [15] = target: Sentrin-specific protease 6 (Homo sapiens, UniProt Q9GZR1); type: functional;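 further: Luminescence-based dose-response confirmatory assay of SENP6 inhibition, following up an ultra-high-throughput screen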
# [16] = target: Induced myeloid leukemia cell differentiation protein Mcl-1 (Homo sapiens, UniProt Q07820); type: functional
# [17] = Luminescence-based cell-based high throughput dose response assay to identify activators of the DAF-12 from the parasite S. stercoralis (ssDAF-12).; type: functional
# [18] = target: Protein disulfide-isomerase (Homo sapiens, UniProt P07237); test: PDI inhibitors, insulin aggregation turbidity, dose response, biochemical, absorbance, cherry-picked samples (AID 602350); type: functional
# [19] = NIH-3T3 fibroblast cytotoxicity, dose response, cytotoxicity control, cell-based, fluorescence, Alamar Blue, secondary assay (AID 2327); type: functional;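 further: NIH-3T3 mouse fibroblasts cultured with fluconazole at 8 µg/mL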
# [20] = microbe, parasite or virus in culture; type: functional; details: Mycobacterium tuberculosis
# [21] = C. albicans growth with fluconazole, confirmation, fluorescence, retest (AID 2467); type: functional, cell-based
# [22] = target: ATP-dependent molecular chaperone HSP82 (Candida albicans (strain WO-1) (Yeast), UniProt C4YTQ8); test: loss of DOC-induced GRE-beta-galactosidase reporter signal, dose response, Hsp90 inhibitor project, S. cerevisiae, luminescence (AID 2400); type: functional, cell-based;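 further: beta-galactosidase luminescence from glucocorticoid response element reporter as proxy for Hsp90 function; inhibitor potency where signal loss means Hsp90 inhibition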
# [23] = target: Serine/threonine-protein phosphatase (Candida dubliniensis (strain CD36 / CBS 7987 / NCPF 3949 / NRRLY-17841) (Yeast), UniProt B9W6M3); test: calcineurin pathway inhibitors in yeast reporter, dose response, S. cerevisiae, CDRE-lacZ, luminescence, secondary (AID 2388); type: functional, cell-based;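 further: yeast reporter cells carrying a calcineurin-responsive lacZ construct stimulated with calcium chloride; luminescent beta-galactosidase reporter signal in whole cells rather than isolated phosphatase activity; potency for inhibition where a drop in reporter signal means calcineurin blockade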
# Large T antigen = Large T antigen (Simian virus 40, UniProt P03070); type: functional, Betapolyomavirus macacae;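 further: Confirmatory-stage PubChem screen for compounds that inhibit SV40 T antigen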
# [24] = target: Dual specificity tyrosine-phosphorylation-regulated kinase 1A (Rattus norvegicus, UniProt Q63470); type: biochemical, Homo sapiens
# cells [25] = type: functional, cell-based
# cells [26] = type: functional, cell-based; remark: listed apart in the source
# INS1 = test: beta cell apoptosis inhibitors, cytokine rescue, dose response, luminescence, retest (AID 449756); type: functional, cell-based; details: Rattus norvegicus;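 further: cell death triggered by IL-1 beta plus TNF-alpha plus IFN-gamma mixture; protective hits raise ATP signal compared with cytokine alone wells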
# [27] = cytotoxicity in HEK-293T cells, dose response, cytotoxicity control for TCR NF-kB inhibitor project, luminescence, T-cell screen hits (AID 489026); type: functional, cell-based;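 further: cells exposed to compound about 14 hours before the viability readout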
# BJ [28] = test: cytotoxicity toward Ras-transformed BJeLR fibroblasts, dose response, cell-based, alamar blue fluorescence, cherrypicked samples (AID 2631); type: functional; details: Homo sapiens;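 further: confirmatory dose-response assay in RAS-dependent BJ fibroblasts engineered with TERT, LT and ST, with cytotoxicity read by fluorescence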
# Fatty acid synthase [29] = target: T6, Fatty acid synthase (Homo sapiens, UniProt P49327); test: FAS thioesterase domain inhibitors, dose response, biochemical, endpoint fluorescence intensity, uHTS hits (AID 624327); type: functional;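 further: fluorescence from hydrolysis of an O-methyl fluorescein acyl ester substrate by the enzyme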
# Vero = test: cells; type: functional; details: Chlorocebus sabaeus
# Fatty acid synthase [30] = target: T6, Fatty acid synthase; test: FAS thioesterase domain inhibitors, dose response, biochemical, kinetic fluorescence intensity (AID 624326); type: functional;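 further: rate of fluorescence rise from hydrolysis of a fluorogenic O-methyl fluorescein ester substrate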
# [31] = cytotoxicity toward DRD oncogenic fibroblasts, dose response, cell-based, non-viral oncogenic, luminescence (AID 1934); type: functional; details: Homo sapiens
# BJ [32] = test: cytotoxicity toward BJ-TERT-LT-ST fibroblasts, dose response, cell-based, RAS-independent, luminescence (AID 1935); type: functional; details: Homo sapiens;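 further: BJ fibroblasts immortalized with TERT plus LT and ST oncogenes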
# BJ [33] = test: cells; type: functional, cell-based; details: Homo sapiens
# BJ [34] = test: cytotoxicity toward BJ-TERT fibroblasts, dose response, cell-based, RAS-independent, luminescence (AID 1933); type: functional; details: Homo sapiens
# Sentrin-specific protease 6, sequence (Q9GZR1 whole entry): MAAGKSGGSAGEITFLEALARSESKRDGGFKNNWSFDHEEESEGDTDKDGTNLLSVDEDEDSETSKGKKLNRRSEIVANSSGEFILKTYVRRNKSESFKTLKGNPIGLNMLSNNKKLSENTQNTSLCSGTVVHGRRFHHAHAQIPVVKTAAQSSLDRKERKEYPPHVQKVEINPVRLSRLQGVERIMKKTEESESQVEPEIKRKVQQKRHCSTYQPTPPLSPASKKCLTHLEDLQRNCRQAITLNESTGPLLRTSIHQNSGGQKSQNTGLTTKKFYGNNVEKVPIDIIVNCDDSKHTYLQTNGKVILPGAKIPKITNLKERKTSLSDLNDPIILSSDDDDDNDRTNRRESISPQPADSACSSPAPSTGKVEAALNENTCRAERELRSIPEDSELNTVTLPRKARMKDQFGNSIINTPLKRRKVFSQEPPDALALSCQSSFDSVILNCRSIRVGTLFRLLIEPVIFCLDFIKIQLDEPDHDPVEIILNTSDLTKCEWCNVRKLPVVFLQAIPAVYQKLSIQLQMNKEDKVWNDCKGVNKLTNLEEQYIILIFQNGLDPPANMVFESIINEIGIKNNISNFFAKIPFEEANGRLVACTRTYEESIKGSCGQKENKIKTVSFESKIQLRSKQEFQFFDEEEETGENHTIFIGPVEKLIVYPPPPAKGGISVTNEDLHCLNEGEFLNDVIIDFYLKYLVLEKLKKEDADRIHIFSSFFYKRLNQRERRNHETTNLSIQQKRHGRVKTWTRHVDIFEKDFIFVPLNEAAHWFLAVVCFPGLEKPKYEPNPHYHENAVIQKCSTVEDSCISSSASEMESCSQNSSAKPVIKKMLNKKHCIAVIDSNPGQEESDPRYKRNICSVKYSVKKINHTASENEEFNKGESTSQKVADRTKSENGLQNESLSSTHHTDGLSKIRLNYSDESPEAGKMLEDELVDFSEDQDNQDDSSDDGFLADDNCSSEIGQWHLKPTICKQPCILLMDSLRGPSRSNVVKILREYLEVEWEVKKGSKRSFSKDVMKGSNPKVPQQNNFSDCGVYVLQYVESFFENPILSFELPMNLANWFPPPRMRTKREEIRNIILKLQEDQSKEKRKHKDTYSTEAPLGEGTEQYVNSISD
# Caspase-3, sequence (P42574 29-175 limits assumed): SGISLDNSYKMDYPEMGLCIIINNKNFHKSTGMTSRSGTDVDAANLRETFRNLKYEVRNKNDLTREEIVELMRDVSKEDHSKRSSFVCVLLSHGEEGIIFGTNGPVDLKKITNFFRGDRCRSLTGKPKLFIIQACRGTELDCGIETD
# Caspase-3, sequence (P42574 176-277 limits assumed): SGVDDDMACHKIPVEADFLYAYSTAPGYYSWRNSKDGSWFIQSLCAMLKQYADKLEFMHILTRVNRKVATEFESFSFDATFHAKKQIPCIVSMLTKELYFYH
# Sentrin-specific protease 7, sequence (Q9BQF6 whole entry): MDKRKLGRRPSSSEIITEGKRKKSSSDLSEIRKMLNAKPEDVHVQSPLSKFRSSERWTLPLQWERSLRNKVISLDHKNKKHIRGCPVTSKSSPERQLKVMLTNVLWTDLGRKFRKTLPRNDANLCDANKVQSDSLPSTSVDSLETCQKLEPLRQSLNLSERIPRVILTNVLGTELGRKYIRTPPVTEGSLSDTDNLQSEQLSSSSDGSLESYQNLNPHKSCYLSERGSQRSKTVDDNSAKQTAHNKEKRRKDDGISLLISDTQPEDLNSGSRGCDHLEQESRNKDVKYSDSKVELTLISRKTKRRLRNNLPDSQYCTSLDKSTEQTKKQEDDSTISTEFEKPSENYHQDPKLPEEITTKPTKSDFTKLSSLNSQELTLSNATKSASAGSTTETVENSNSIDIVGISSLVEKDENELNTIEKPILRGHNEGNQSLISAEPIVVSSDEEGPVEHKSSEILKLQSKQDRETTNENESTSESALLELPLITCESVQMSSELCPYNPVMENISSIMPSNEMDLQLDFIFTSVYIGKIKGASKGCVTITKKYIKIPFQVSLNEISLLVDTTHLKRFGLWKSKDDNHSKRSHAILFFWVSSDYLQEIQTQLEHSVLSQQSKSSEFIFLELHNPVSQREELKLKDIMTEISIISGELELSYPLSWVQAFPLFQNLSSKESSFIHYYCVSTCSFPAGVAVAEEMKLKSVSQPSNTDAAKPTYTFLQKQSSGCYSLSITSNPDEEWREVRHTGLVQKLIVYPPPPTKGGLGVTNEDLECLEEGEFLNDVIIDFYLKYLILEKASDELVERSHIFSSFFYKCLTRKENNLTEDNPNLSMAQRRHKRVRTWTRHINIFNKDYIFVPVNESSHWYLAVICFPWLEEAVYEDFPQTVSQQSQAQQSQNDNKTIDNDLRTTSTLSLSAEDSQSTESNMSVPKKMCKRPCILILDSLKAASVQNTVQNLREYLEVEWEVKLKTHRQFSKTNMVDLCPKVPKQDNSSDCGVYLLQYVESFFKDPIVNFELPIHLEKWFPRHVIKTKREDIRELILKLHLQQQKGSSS
# Protein disulfide-isomerase, sequence (P07237 whole entry): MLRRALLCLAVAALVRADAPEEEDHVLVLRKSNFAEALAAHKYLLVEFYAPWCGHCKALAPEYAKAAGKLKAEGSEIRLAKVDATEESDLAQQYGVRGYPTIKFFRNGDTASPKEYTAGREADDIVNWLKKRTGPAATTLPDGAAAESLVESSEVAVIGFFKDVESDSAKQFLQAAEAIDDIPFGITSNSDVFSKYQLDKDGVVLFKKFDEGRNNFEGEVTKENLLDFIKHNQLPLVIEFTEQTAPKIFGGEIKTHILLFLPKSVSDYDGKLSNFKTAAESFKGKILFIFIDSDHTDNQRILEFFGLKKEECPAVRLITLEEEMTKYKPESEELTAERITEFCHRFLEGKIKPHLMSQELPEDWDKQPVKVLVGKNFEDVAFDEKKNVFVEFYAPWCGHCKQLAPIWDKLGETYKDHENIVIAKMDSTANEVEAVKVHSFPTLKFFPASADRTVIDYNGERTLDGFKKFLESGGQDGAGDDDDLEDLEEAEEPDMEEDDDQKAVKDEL
# Serine/threonine-protein phosphatase, sequence (B9W6M3 whole entry): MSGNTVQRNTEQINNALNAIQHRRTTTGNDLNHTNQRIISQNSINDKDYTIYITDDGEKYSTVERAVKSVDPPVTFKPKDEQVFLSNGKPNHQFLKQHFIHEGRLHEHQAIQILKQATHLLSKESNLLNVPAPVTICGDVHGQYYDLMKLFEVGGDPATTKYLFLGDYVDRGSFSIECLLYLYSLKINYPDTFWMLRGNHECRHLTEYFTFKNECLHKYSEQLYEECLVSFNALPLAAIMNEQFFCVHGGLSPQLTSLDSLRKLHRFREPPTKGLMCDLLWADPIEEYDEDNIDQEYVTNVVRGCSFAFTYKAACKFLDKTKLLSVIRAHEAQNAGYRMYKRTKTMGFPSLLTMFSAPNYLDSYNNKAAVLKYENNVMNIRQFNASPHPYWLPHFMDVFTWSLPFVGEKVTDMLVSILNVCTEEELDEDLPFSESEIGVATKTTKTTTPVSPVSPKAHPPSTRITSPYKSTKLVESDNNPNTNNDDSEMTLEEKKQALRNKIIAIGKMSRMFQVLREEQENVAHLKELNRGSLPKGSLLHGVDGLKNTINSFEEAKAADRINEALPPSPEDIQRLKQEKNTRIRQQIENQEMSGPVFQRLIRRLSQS
# ATP-dependent molecular chaperone HSP82, sequence (C4YTQ8 whole entry): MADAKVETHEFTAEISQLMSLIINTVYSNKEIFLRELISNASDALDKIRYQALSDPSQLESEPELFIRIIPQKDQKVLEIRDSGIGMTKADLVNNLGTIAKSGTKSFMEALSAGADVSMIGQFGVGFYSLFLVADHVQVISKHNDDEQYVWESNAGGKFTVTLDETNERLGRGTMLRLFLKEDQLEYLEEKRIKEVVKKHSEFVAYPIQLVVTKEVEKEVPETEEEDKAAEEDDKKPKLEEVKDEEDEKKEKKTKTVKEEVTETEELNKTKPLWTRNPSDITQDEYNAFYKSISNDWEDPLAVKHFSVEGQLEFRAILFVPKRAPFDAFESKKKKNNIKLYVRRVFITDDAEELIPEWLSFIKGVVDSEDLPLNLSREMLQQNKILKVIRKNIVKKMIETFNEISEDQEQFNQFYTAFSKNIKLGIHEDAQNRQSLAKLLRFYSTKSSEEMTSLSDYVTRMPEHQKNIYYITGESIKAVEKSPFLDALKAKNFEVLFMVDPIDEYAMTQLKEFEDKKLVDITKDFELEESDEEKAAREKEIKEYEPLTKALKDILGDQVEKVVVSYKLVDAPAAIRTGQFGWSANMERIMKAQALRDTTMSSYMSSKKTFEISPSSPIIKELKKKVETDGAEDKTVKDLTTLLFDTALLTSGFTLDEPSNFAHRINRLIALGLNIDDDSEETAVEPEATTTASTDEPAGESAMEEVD
# Induced myeloid leukemia cell differentiation protein Mcl-1, sequence (Q07820 whole entry): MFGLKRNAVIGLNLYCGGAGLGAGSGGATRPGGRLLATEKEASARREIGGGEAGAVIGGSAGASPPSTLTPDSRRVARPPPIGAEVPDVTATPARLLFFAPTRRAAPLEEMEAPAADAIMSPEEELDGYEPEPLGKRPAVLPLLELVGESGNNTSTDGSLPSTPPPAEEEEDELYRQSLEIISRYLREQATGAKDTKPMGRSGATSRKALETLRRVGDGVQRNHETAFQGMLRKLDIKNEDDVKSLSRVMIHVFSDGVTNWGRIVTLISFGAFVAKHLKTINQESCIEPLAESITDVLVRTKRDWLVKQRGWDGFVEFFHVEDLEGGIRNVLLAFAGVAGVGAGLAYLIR
# CAAX prenyl protease 2 (Homo sapiens, UniProt Q9Y256), sequence (Q9Y256 whole entry): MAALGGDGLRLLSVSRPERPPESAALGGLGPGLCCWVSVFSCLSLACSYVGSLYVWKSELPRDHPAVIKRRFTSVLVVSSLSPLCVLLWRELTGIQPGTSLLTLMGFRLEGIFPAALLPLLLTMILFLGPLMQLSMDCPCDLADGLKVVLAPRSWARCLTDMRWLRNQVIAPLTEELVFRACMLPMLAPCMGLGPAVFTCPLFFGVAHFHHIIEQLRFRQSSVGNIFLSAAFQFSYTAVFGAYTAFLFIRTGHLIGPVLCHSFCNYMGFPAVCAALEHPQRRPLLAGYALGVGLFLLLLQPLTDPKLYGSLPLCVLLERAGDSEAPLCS
smiles,measurement,setting,value
Cc1cccc(-c2oc3ccccc3c2C#CCCCCO)c1,EC50,[1],4.57 µM (active)
same,AC50,CAAX prenyl protease 1,3.56 µM (active)
same,EC50,Streptococcus,7.64 µM (active)
same,EC50,Streptokinase A,> 150 µM (not active)
same,AC50,Trypsin,3.53 µM (active)
same,AC50,[2],6.31 µM (active)
same,AC50,CAAX prenyl protease 2 [3],12.9 µM (active)
same,AC50,CAAX prenyl protease 2 [4],7.08 µM (active)
COc1ccc(Oc2c(Cl)cnn(C3c4ccccc4Oc4ccccc43)c2=O)cc1,IC50,[5],> 20 µM (inactive)
Cn1cc(Nc2ncc(Br)c(Nc3ccccc3)n2)cn1,Ki,[6],2 µM (active)
same,Ki,[7],1.26 µM (active)
COc1ccc(-n2nc3cc(C)c(N)c(Br)c3n2)cc1,IC50,[8],5.86 µM (active)
same,IC50,[9],41.3 µM (active)
same,IC50,[10],> 50 µM (not active)
same,EC50,cells [11],> 67.5 µM (inactive)
same,IC50,Caspase-3,35.5 µM (active)
same,EC50,[12],> 67.5 µM (inactive)
same,IC50,[13],> 50 µM (not active)
same,EC50,[14],> 67.5 µM (inactive)
same,IC50,[15],13.7 µM (active)
same,IC50,[16],2.53 µM (active)
same,IC50,[17],> 67.5 µM (inactive)
C[C@H]1CN([C@@H](C)CO)C(=O)c2cccc(NS(C)(=O)=O)c2O[C@@H]1CN(C)Cc1ccc(Oc2ccccc2)cc1,AC50,[18],19.5 µM (active)
Cc1c(Cl)ccc2c1NC(=O)[C@]21N[C@@H](Cc2ccccc2)[C@H]2C(=O)N(c3ccc(F)cc3)C(=O)[C@H]21,EC50,[19],> 150 µM (inactive)
same,CC50,[20],33 µM (active)
same,EC50,[21],0.206 µM (active)
same,EC50,[22],> 160 µM (inactive)
same,EC50,[23],> 180 µM (inactive)
Cc1ccc(OCc2nc(-c3ccccc3)no2)cc1,IC50,[8],11.6 µM (active)
same,IC50,[9],69.9 µM (active)
same,IC50,Caspase-3,42.1 µM (active)
same,IC50,[15],47.1 µM (active)
O=c1c(OC2OC(CO)C(O)C(O)C2O)c(-c2ccc(O)c(O)c2)oc2cc(O)cc(O)c12 (stereo not given),IC50,[13],21.3 µM (active)
same,IC50,Large T antigen,2.06 µM (active)
same,AC50,[24],7.72 µM (active)
same,AC50,[18],8.92 µM (active)
O=C(N/N=C\c1c(O)ccc2ccccc12)c1ccc(S(=O)(=O)N2CCCCC2)cc1,EC50,cells [25],5.71 µM (active)
same,EC50,cells [26],> 350 µM (not active)
same,EC50,[19],3.29 µM (active)
same,AC50,INS1,< 0.195 µM (active)
same,IC50,[27],> 80 µM (inactive)
same,EC50,BJ [28],0.558 µM (inconclusive)
same,EC50,[21],0.178 µM (active)
O=C(Nc1nnc(-c2ccc(F)cc2)o1)c1cccc([N+](=O)[O-])c1,IC50,Fatty acid synthase [29],11.9 µM (active)
same,CC50,Vero,11.4 µM (active)
same,EC50,[19],> 150 µM (inactive)
same,EC50,[21],0.601 µM (active)
same,IC50,Fatty acid synthase [30],9.09 µM (active)
same,EC50,[22],> 150 µM (inactive)
same,EC50,[23],> 180 µM (inactive)
Cc1ccccc1Nc1nc(N)nc(CCl)n1,EC50,[31],4.85 µM (active)
same,EC50,BJ [32],> 150 µM (not active)
same,EC50,BJ [33],7.39 µM (inconclusive)
same,EC50,BJ [28],13.6 µM (active)
same,EC50,BJ [34],0.369 µM (inconclusive)
